In paper PMC10515486, “Peptide Bispecifics Inhibiting HIV-1 Infection by an Orthogonal Chemical and Supramolecular Strategy” (Bioconjugate Chemistry, 2023):
Non-standard residues stand in square brackets, D forms with d. Residues, ends and D or L forms follow the SMILES beside them. No end group written: not given here. *: point of attachment. X1 = O=C(CCCC[C@@H]1SC[C@@H]2NC(=O)N[C@@H]21)NCCOCCOCCOCCOCCOCCOCCOCCOCCOCCOCCOCCNC(=O)CCN1C(=O)CC(*)C1=O

Assays:
R5-tropic HIV-1 NL4-3 = test system: R5-tropic HIV-1 NL4-3
Source text: (§1) TZM-bl reporter cells were pretreated with increasing concentrations of the mono- and multivalent compounds and subsequently infected with the well-characterized X4-tropic HIV-1 NL4-3 molecular clone or an R5-tropic derivative thereof that differs in the V3 region of the viral envelope glycoprotein from the parental virus (Figure 5A).[39]
(§2) (A) TZM-bl cells were pretreated with the indicated amounts of the single or multivalent compound and infected with X4- or R5-tropic HIV-1. Three days post-infection, a β-galactosidase assay was performed. […] (B) Human PBMCs were isolated, stimulated, and pretreated with 1 μM of the indicated single- or multivalent compound, Maraviroc (MVC/50 nM) or AMD3100 (1 μM). The cells were infected with X4- or R5-tropic HIV-1. Infectious virus yield was determined by infection of TZM-bl reporter cells with PBMC culture supernatants obtained at the indicated day post-infection (dpi). […]
(§3) in supplemented RPMI-1640 and incubated with Human T-Activator CD3/CD28 […]
(§4) Virus stocks were generated by transient transfection of HEK293T cells using the calcium-phosphate precipitation method. One day before transfection, 0.8 x 10^6 HEK293T cells were seeded in 6 -well plates (Greiner Bio -one, Frickenhausen, Germany). At a confluence of 60-80% cells were used for transfection. For the […]

X4-tropic HIV-1 NL4-3 = settings: read-out: IC50 X4; TZM-bl cells pretreated, infected with X4-tropic HIV-1 NL4-3; β-galactosidase 3 days p.i.; molarity of biotin-conjugated peptide or of SAv construct (per construct); nonlinear regression
Source text: as §1, §2, §3, §4

HIV-1 NL4-3 = assay: TZM-bl infection with HIV-1 NL4-3 preincubated with carrier compounds; format: cell-based; settings: virus preincubated with increasing amounts of carrier; β-galactosidase 3 days p.i.; three biological replicates
Protocol: To determine the infectivity of virions produced in infected human |PBMCs, TZM-bl cells were seeded in 96 -well plates at a density of 10,000 cells/well and infected after overnight incubation with the supernatants collected from the PBMC cultures. Three days p.i., viral infectivity was determined using a galactosidase screen kit from Tropix as recommended by the manufacturer. β-Galactosidase activities were quantified as relative light units (RLU) per second with an Orion Microplate luminometer (Berthold) . […]
infected with HIV-1 NL4-3 that was preincubated with increasing amounts of the carrier compounds Avidin, Neutravidin or Streptavidin. Three days post infection , a β-galactosidase assay was performed.
Each dot represents three biological replicates ± SEM.
(1 picture or pasted object on this page, not shown here)

X4-tropic HIV-1 = assay: Replication kinetics in human PBMCs, X4-tropic HIV-1; format: cell-based; settings: activated PBMCs from three human donors; 1 μM compound, AMD3100 1 μM, MVC 50 nM; supernatants titrated on TZM-bl cells
Protocol: as §2

wild-type HIV-1 NL4-3 = settings: Figure 2B
Source text: (B) Inhibition of wild-type HIV-1 NL4-3 by single-cysteine VIRIP derivatives.

R5-tropic HIV-1 = assay: Replication kinetics in human PBMCs, R5-tropic HIV-1; format: cell-based; settings: activated PBMCs from three human donors; 1 μM compound, AMD3100 1 μM, MVC 50 nM; supernatants titrated on TZM-bl cells
Protocol: Figure 5 Antiviral activity of single- and multivalent VIR-102C9/EPI-X4 JM#173-C conjugates. Concentrations indicate the molarity of the tested biotin-conjugated peptides or of the SAv conjugates with four copies of mono- or bispecific peptides respectively. (A) TZM-bl cells were pretreated with the indicated amounts of the single or multivalent compound and infected with X4- or R5-tropic HIV-1. Three days post-infection, a β-galactosidase assay was performed. IC50 values are given in the SI (Table S2). (B) Human PBMCs were isolated, stimulated, and pretreated with 1 μM of the indicated single- or multivalent compound, Maraviroc (MVC/50 nM) or AMD3100 (1 μM). […] Infectious virus yield was determined by infection of TZM-bl reporter cells with PBMC culture supernatants obtained at the indicated day post-infection (dpi). […] They are assigned to (14) only because they sit in the plots with the purple curve, matched to the colour legend. / 14, IC50 (X4): small print, 0.026 could be 0.028 or 0.025 / 14, IC50 (R5): small print, 0.039 could be 0.038 or 0.089 / Substance label in the legend reads 'SAv-VIR-1029C-', but panel B prints 'SAv-VIR-102C9'. […]
Cell viability was determined by the Cell Titer-Glo 2.0 Cell Viability Assay according to the manufacturer’s instructions. […]
After 48 h, cell viability was assessed by measuring ATP levels in cells lysates with the commercially available Cell Titer-Glo kit. […]

## CC[C@H](C)[C@H](NC(=O)[C@H](CO)NC(=O)[C@H](CCSC)NC(=O)[C@@H]1CCCN1C(=O)[C@@H](NC(=O)[C@H](C)NC(=O)[C@H](CCC(=O)O)NC(=O)[C@@H](N)CC(C)C)[C@@H](C)CC)C(=O)N[C@@H](CSC1CC(=O)N(CCC(=O)NCCOCCOCCOCCOCCOCCOCCOCCOCCOCCOCCOCCNC(=O)CCCC[C@@H]2SC[C@@H]3NC(=O)N[C@@H]32)C1=O)C(=O)N1CCC[C@H]1C(=O)N[C@@H](CCC(=O)O)C(=O)N[C@H](C(=O)N[C@@H](Cc1ccccc1)C(=O)N[C@@H](Cc1ccccc1)C(=O)N[C@@H](CC(N)=O)C(=O)N[C@@H](CCCCN)C(=O)N1CCC[C@H]1C(=O)N[C@@H](Cc1ccccc1)C(=O)N[C@H](C(=O)N[C@@H](Cc1ccccc1)C(=O)O)C(C)C)C(C)C (stereo partly shown) [compound 5] (H-LEAIPMSIC(X1)PEVFFNKPFVF-OH; N-terminus and C-terminus assumed)
R5-tropic HIV-1 NL4-3; read-out: IC50 R5, TZM-bl cells pretreated, infected with R5-tropic HIV-1 NL4-3 derivative, β-galactosidase 3 days p.i., molarity of biotin-conjugated peptide or of SAv construct (per construct)
  IC50: 1200 nM
X4-tropic HIV-1 NL4-3
  IC50: 1130 nM

## Streptavidin: tetrameric biotin-binding protein, carrier
HIV-1 NL4-3
  effect on HIV-1 infection efficiency: do not alter

## c1cc(CN2CCCNCCNCCCNCC2)ccc1CN1CCCNCCNCCCNCC1 [AMD3100]
X4-tropic HIV-1
  replication of X4-tropic HIV-1 in PBMCs (infectious virus yield): blocked

## CC[C@@H](C)[C@@H](N)C(=O)N[C@@H](CC(C)C)C(=O)N[C@@H](CCCNC(=N)N)C(=O)N[C@@H](Cc1c[nH]c2ccccc12)C(=O)N[C@@H](CO)C(=O)N[C@@H](CCCNC(=N)N)C(=O)N[C@@H](CCCCN)C(=O)N[C@@H](CSC1CC(=O)N(CCC(=O)NCCOCCOCCOCCOCCOCCOCCOCCOCCOCCOCCOCCNC(=O)CCCC[C@@H]2SC[C@@H]3NC(=O)N[C@@H]32)C1=O)C(N)=O (stereo partly shown) [compound 6] (H-[dI]LRWSRKC(X1)-NH2; N-terminus and C-terminus assumed)
R5-tropic HIV-1 NL4-3; TZM-bl cells
  activity against the R5-tropic derivative (in words): inactive

## LEAIPMSICPEVFFNKPFVF [VIR-102C9]
wild-type HIV-1 NL4-3
  IC50: 200 nM

## Maraviroc
R5-tropic HIV-1
  replication of R5-tropic HIV-1 in PBMCs (infectious virus yield): prevented
